Laboratory results: paper PMC12207802, “Discovery of coniferaldehyde as an inhibitor of caseinolytic protease to combat Staphylococcus aureus infections” (Molecular Medicine, 2025)

Molecular target: T1, Caseinolytic protease P (ClpP) (Staphylococcus aureus, UniProt Q2G036)
T1 construct: clpP of S. aureus NCTC 8325-4 in pET-28a (+), Ni-purified
Experiment: fluorogenic Suc-Leu-Tyr-AMC peptidase assay with purified ClpP; supported by fluorescence quenching (Ka), CETSA, CD and ClpXP GFP-SsrA degradation
Format: biochemical

T1 sequence (Q2G036 whole entry): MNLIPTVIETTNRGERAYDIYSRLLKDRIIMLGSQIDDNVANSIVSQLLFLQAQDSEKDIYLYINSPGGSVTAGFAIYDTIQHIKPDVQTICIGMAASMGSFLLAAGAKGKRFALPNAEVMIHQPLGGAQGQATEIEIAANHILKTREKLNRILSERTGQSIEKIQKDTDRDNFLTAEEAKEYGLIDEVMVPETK

COc1cc(/C=C/C=O)ccc1O [CA, 4-hydroxy-3-methoxycinnamaldehyde]
IC50: 103 µM
